Measurements from ChEMBL document CHEMBL3608269, “Triazole-Linked Glycolipids Enhance the Susceptibility of MRSA to β-Lactam Antibiotics” (ACS Med Chem Lett, 2015).
In brackets after ≈: the same amount, converted by molar mass. Activity calls are given as the source filed them. The calls are words filed in the database; no cut-off is given here.

Key:
Staphylococcus aureus [1] = test: Antibacterial activity against methicillin-resistant Staphylococcus aureus ATCC 43300 after 20 to 24 hrs by CLSI method; format: functional
Staphylococcus aureus [2] = test: Potentiation of oxacillin-mediated antibacterial activity against methicillin-resistant Staphylococcus aureus ATCC 43300 at 32 ug/ml after 20 to 24 hrs by CLSI method; format: functional
Staphylococcus aureus [3] = test: Potentiation of oxacillin-mediated antibacterial activity against methicillin-resistant Staphylococcus aureus ATCC 43300 assessed as decrease in oxacillin MIC at 32 ug/ml after 20 to 24 hrs by CLSI method relative to control; format: functional
Staphylococcus aureus [4] = test: Antibacterial activity against methicillin-resistant Staphylococcus aureus ATCC 43300 assessed as growth inhibition at 2 ug/ml after 24 hrs by Epsilometer test; format: functional, organism-based
Staphylococcus aureus [5] = test: Antibacterial activity against methicillin-resistant Staphylococcus aureus ATCC 43300 assessed as growth inhibition at 2 ug/ml measured up to 24 hrs by time kill assay; format: functional, organism-based
Staphylococcus aureus [6] = test: Downregulation of mecA mRNA expression in methicillin-resistant Staphylococcus aureus ATCC 43300 at 2 ug/ml after 4 hrs by RT-PCR analysis; format: functional, organism-based
Staphylococcus aureus [7] = test: Antibacterial activity against methicillin-resistant Staphylococcus aureus ATCC 43300 assessed as change in bacterial surface at 2 ug/ml after 4 hrs by scanning electron microscopic analysis; format: functional, organism-based
Staphylococcus aureus [8] = test: Antibacterial activity against methicillin-resistant Staphylococcus aureus R15 clinical isolate after 20 to 24 hrs by CLSI method; format: functional
Staphylococcus aureus [9] = test: Antibacterial activity against methicillin-resistant Staphylococcus aureus R16 clinical isolate after 20 to 24 hrs by CLSI method; format: functional
Staphylococcus aureus [10] = test: Antibacterial activity against methicillin-resistant Staphylococcus aureus R36 clinical isolate after 20 to 24 hrs by CLSI method; format: functional
Staphylococcus aureus [11] = test: Antibacterial activity against methicillin-resistant Staphylococcus aureus R49 clinical isolate after 20 to 24 hrs by CLSI method; format: functional
Staphylococcus aureus [12] = test: Antibacterial activity against methicillin-resistant Staphylococcus aureus R50 clinical isolate after 20 to 24 hrs by CLSI method; format: functional
Staphylococcus aureus [13] = test: Antibacterial activity against methicillin-resistant Staphylococcus aureus R53 clinical isolate after 20 to 24 hrs by CLSI method; format: functional
Staphylococcus aureus [14] = test: Antibacterial activity against methicillin-resistant Staphylococcus aureus R302 clinical isolate after 20 to 24 hrs by CLSI method; format: functional
Staphylococcus aureus [15] = test: Antibacterial activity against methicillin-resistant Staphylococcus aureus R304 clinical isolate after 20 to 24 hrs by CLSI method; format: functional
Staphylococcus aureus [16] = test: Antibacterial activity against methicillin-resistant Staphylococcus aureus R306 clinical isolate after 20 to 24 hrs by CLSI method; format: functional
Staphylococcus aureus [17] = test: Antibacterial activity against methicillin-resistant Staphylococcus aureus R308 clinical isolate after 20 to 24 hrs by CLSI method; format: functional
Staphylococcus aureus [18] = test: Antibacterial activity against methicillin-resistant Staphylococcus aureus R313 clinical isolate after 20 to 24 hrs by CLSI method; format: functional
Staphylococcus aureus [19] = test: Antibacterial activity against methicillin-resistant Staphylococcus aureus R314 clinical isolate after 20 to 24 hrs by CLSI method; format: functional

| Compound | MIC (Staphylococcus aureus [1]) [µg/mL] | MIC (Staphylococcus aureus [2]) [µg/mL] | other results |
| --- | --- | --- | --- |
| CCCCCCCCCCCCCCCCCCO [CETOSTEARYL ALCOHOL] | > 256 | > 32 |  |
| CCCCCCCCCCCCCCO [MYRISTYL ALCOHOL] | > 256 | > 32 |  |
| CCCCCCCCCCCCCCO[C@@H]1O[C@H](CO)[C@@H](O)[C@H](O)[C@H]1O | > 256 | > 32 |  |
| CCCCCCCCCCCCCCCCO[C@@H]1O[C@H](CO)[C@@H](O)[C@H](O)[C@H]1O | > 256 | > 32 |  |
| CCCCCCCCCCO [DECANOL] | > 256 | > 32 |  |
| CCCCCCCCCCCCO [DODECANOL] | > 256 | > 32 |  |
| CCCCCCO [1-HEXANOL] | > 256 | > 32 |  |
| CCCCCCCCCCCCOCc1cn([C@@H]2O[C@H](CO)[C@@H](O)[C@H](O)[C@@H]2O)nn1 | 256 (≈ 596 µM) | 4 | fold change (FC) (Staphylococcus aureus [3]): 64 |
| CCCCCCCCCCCCCCOCc1cn([C@@H]2O[C@H](CO)[C@@H](O)[C@H](O)[C@H]2O)nn1 | 256 (≈ 559 µM) | 4 | fold change (FC) (Staphylococcus aureus [3]): 64 |
| Cc1onc(-c2ccccc2)c1C(=O)N[C@@H]1C(=O)N2[C@@H]1SC(C)(C)[C@@H]2C(=O)O [OXACILLIN] | 64 (≈ 159 µM) |  | growth inhibition (GI) (Staphylococcus aureus [4]): inactive; growth inhibition (GI) (Staphylococcus aureus [5]): inactive; Activity (Staphylococcus aureus [6]): inactive; Activity (Staphylococcus aureus [7]): inactive; MIC (Staphylococcus aureus [8]): 256 µg/mL (≈ 638 µM); MIC (Staphylococcus aureus [9]): ≥ 256 µg/mL; MIC (Staphylococcus aureus [10]): 128 µg/mL (≈ 319 µM); MIC (Staphylococcus aureus [11]): 8 µg/mL (≈ 19.9 µM); MIC (Staphylococcus aureus [12]): 8 µg/mL (≈ 19.9 µM); MIC (Staphylococcus aureus [13]): 8 µg/mL (≈ 19.9 µM); MIC (Staphylococcus aureus [14]): 512 µg/mL (≈ 1280 µM); MIC (Staphylococcus aureus [15]): 512 µg/mL (≈ 1280 µM); MIC (Staphylococcus aureus [16]): 512 µg/mL (≈ 1280 µM); MIC (Staphylococcus aureus [17]): 1020 µg/mL (≈ 2550 µM); MIC (Staphylococcus aureus [18]): 16 µg/mL (≈ 39.9 µM); MIC (Staphylococcus aureus [19]): 512 µg/mL (≈ 1280 µM) |
| CCCCCCCCCCCCCCCCO [CETYL ALCOHOL] | > 256 | > 32 |  |
| CCCCCCCCCCCCCCOCc1cn([C@@H]2O[C@H](CO)[C@H](O)[C@H](O)[C@H]2O)nn1 | 256 (≈ 559 µM) | 8 | fold change (FC) (Staphylococcus aureus [3]): 32 |
| CCCCCCCCCCCCCCCCOCc1cn([C@@H]2O[C@H](CO)[C@H](O)[C@H](O)[C@H]2O)nn1 | 256 (≈ 527 µM) | 16 | fold change (FC) (Staphylococcus aureus [3]): 16 |
| CCCCCCCCO [OCTANOL] | > 256 | > 32 |  |
